Experiment [1] relates to non-small cell lung cancer cell line H460. Put plainly: In vitro human cancer cell line cytotoxicity (proliferation) assay in H460, CellTiter-Glo, 72 hours. The experiment is classed as cell-based. To be noted: H460 cells, DMSO condition (no AKR1C3 inhibitor), read-out: CTG H460: Avg IC50 (nM) [Assay Condition: DMSO]. As for the experimental part: Biological Example 1. In Vitro Human Cancer Cell Line Cytotoxicity Assay
IC50 values in nanomolar reported here were derived from in vitro proliferation assay data in non-small cell lung cancer cell line H460.
(§1) Specifically, exponentially growing cells were seeded at density of 3×10^3 cells per well in 96-well plate and incubated at 37° C. in 5% CO2, 95% air and 100% relative humidity for 24 hours before adding compounds. Compounds were solubilized in 100% DMSO at 10 mM. Compounds were added to the plate using Tecan D300e® digital Dispenser. After drug addition, the plates were incubated for an additional 72 hours at 37° C. in 5% CO2, 95% air and 100% relative humidity. At the end of the incubation, cell viability was quantified with CellTiter-Glo® assay.
On the technique in general: Cellular ATP, detected with luciferase, serves as a proxy for viable cell number.

The test system is the same in experiment [2]. The experiment is described as follows: H460 proliferation assay in the presence of 3 uM ASP9521 (AKR1C3 specific inhibitor). Type of experiment: cell-based, human. To be noted: H460 cells, CellTiter-Glo, 72 hours, in the presence of 3 uM ASP9521 added 4 hours prior to compounds; read-out: CTG H460: Avg IC50 (nM) [Assay Condition: ASP9521]. As for the experimental part: as §1
To further confirm that compounds were activated by human AKR1C3, H460 proliferation assay were also performed in the presence of 3 uM […], an AKR1C3 specific inhibitor. ASP9521 were added to the plates 4 hours prior to the addition of compounds.

Bounds are passed on as bounds.

IC50 data for 42 compounds are collected here from US20260167656A1, “PHOSPHORAMIDATE COMPOUNDS AND USES THEREOF” (ALLORION THERAPEUTICS INC, priority 2022, published 2026).

The IC50 is the concentration at which inhibition is half-maximal. On to `O=[N+]([O-])c1ccc2c(c1Oc1ccc(-c3ccc(F)cc3)cc1)OCCC2OP(=O)(N1CC1)N1CC1` (stereo not drawn) [Example 133], for which the IC50 in experiment [1] is 10 to 50 nM; in experiment [2], 1620 nM.

Consider `O=[N+]([O-])c1ccc2c(c1Oc1cccc(-c3nncs3)c1)CC[C@H]2OP(=O)(N1CC1)N1CC1` [Example 352], for which the IC50 in experiment [1] (Homo sapiens, NCI-H460, 72 h) was under 10 nM; in experiment [2] it was 268 nM.

With `CC(OP(=O)(N1C[C@@H]1C)N1C[C@@H]1C)c1ccc([N+](=O)[O-])c(Oc2ccc(-c3ccccc3)cc2)c1` (stereo partly drawn) [Example 219], the IC50 in experiment [1] is under 10 nM; in experiment [2] it was 2750 nM.

For the compound `O=C(c1cccc(Oc2c([N+](=O)[O-])ccc3c2CCC3OP(=O)(N2CC2)N2CC2)c1)N1CCCOCC1` (stereo not drawn) [Example 106], the IC50 in experiment [1] was under 10 nM; in experiment [2], 416 nM.

In the case of `Cn1cnc(-c2cccc(Oc3c([N+](=O)[O-])ccc4c3CCC4OP(=O)(N3CC3)N3CC3)c2)cc1=O` (stereo not drawn) [Example 117], the IC50 was at least 100 nM in experiment [1] and 1030 nM in experiment [2].

Turning to `Cc1cccc(-c2ccc(Oc3c([N+](=O)[O-])ccc4c3CCC4OP(=O)(N3CC3)N3CC3)cc2)n1` (racemic) [Example 277], the IC50 in experiment [1] was under 10 nM; in experiment [2], 1530 nM.

`CNC(=O)c1ccc(Oc2c([N+](=O)[O-])ccc3c2OCCC3OP(=O)(N2CC2)N2CC2)cc1` (stereo not drawn) [Example 137]: the IC50 in experiment [1] is under 10 nM; in experiment [2], 538 nM.

Regarding `O=[N+]([O-])c1ccc2c(c1Oc1cccc(-c3ncc(F)cn3)c1)CCC2OP(=O)(N1CC1)N1CC1` (stereo not drawn) [Example 87], the figures for the half-inhibitory concentration (IC50) in experiment [1] and in experiment [2] were 10 to 50 nM and 5890 nM, respectively.

On to `C[C@H]1CN1P(=O)(OC(c1ccc([N+](=O)[O-])c(Oc2cccc(C(=O)N(C)C)c2)c1)C(F)(F)F)N1C[C@@H]1C` (single isomer, unassigned) [Example 225], for which the IC50 is 50 to 100 nM in experiment [1] (Homo sapiens, NCI-H460, 72 h) and 9530 nM in experiment [2].

Regarding `O=C(c1ccc(Oc2c([N+](=O)[O-])ccc3c2CCC3OP(=O)(N2CC2)N2CC2)cc1)N1CCOCC1` (stereo not drawn) [Example 34], the 50% inhibitory concentration (IC50) in experiment [1] (Homo sapiens, NCI-H460, 72 h) is 10 to 50 nM; in experiment [2] it was 822 nM.

Turning to `CS(=O)(=O)c1ccc(Oc2c([N+](=O)[O-])ccc3c2CCC3OP(=O)(N2CC2)N2CC2)cc1` (stereo not drawn) [Example 506], the IC50 in experiment [1] was under 10 nM; in experiment [2], 625 nM.

For `O=[N+]([O-])c1cc2c(cc1Oc1ccc(-c3ccccc3)nc1)[C@@H](OP(=O)(N1CC1)N1CC1)CC2` [Example 527], the figures for the IC50 in experiment [1] and in experiment [2] were under 10 nM and 1090 nM, respectively.

Regarding `O=[N+]([O-])c1ccc2c(c1Oc1ccc(F)c(-c3nncs3)c1)CC[C@@H]2OP(=O)(N1CC1)N1CC1` [Example 363], the IC50 was under 10 nM in experiment [1] (Homo sapiens, NCI-H460, 72 h) and 584 nM in experiment [2].

On to `COc1ccnc(OCc2cc(C(C)OP(=O)(N3CC3)N3CC3)ccc2[N+](=O)[O-])c1` (single isomer, unassigned) [Example 3], for which the IC50 in experiment [1] (Homo sapiens, NCI-H460, 72 h) is at least 100 nM; in experiment [2], over 3410 nM.

For `O=[N+]([O-])c1ccc2c(c1Oc1cccc(-n3ccc(C4CC4)n3)c1)CCC2OP(=O)(N1CC1)N1CC1` (stereo not drawn) [Example 116], the IC50 in experiment [1] was 10 to 50 nM; in experiment [2], 5560 nM.

On to `O=C(c1cccc(Oc2c([N+](=O)[O-])ccc3c2CCC3OP(=O)(N2CC2)N2CC2)c1)N1CCCC1` (stereo not drawn) [Example 100], for which the IC50 in experiment [1] was under 10 nM; in experiment [2] it was 618 nM.

For the compound `COc1ccc(Oc2c([N+](=O)[O-])ccc3c2CCC3OP(=O)(N2CC2)N2CC2)cc1OC1CC1` (stereo not drawn) [Example 483], the half-maximal inhibitory concentration (IC50) in experiment [1] was under 10 nM; in experiment [2], 735 nM.

On to `O=[N+]([O-])c1ccc2c(c1Oc1cccc(OCC3CC3)c1)CCC2OP(=O)(N1CC1)N1CC1` (stereo not drawn) [Example 482], for which the IC50 in experiment [1] was under 10 nM; in experiment [2], 1340 nM.

Turning to `CN1Cc2cc(Oc3cc4c(cc3[N+](=O)[O-])CCC4OP(=O)(N3CC3)N3CC3)ccc2C1=O` (stereo not drawn) [Example 154], the IC50 is under 10 nM in experiment [1] (Homo sapiens, NCI-H460, 72 h) and 309 nM in experiment [2].

Regarding `CC(OP(=O)(N1CC1)N1CC1)c1cc2cc(Oc3cccc(C(=O)N4CCOCC4)c3)c([N+](=O)[O-])cc2o1` (stereo not drawn) [Example 544], the IC50 in experiment [1] is 10 to 50 nM; in experiment [2], 3490 nM.

With `CC(OP(=O)(N1CC1)N1CC1)c1cc2cc(Oc3cccc(C(=O)N4CCC(F)(F)CC4)c3)c([N+](=O)[O-])cc2o1` (stereo not drawn) [Example 548], the IC50 was under 10 nM in experiment [1] and 2140 nM in experiment [2].

For the compound `C[C@H]1CN1P(=O)(OCc1c(F)c(F)c(OCc2ccc([N+](=O)[O-])c(Oc3cccc(C(=O)N(C)C)c3)c2)c(F)c1F)N1C[C@@H]1C` (stereo partly drawn) [Example 12, 4-((3-(3-(dimethylcarbamoyl)phenoxy)-4-nitrobenzyl)oxy)-2,3,5,6-tetrafluorobenzyl bis((S)-2-methylaziridin-1-yl)phosphinate], the IC50 in experiment [1] (Homo sapiens, NCI-H460, 72 h) was under 10 nM; in experiment [2], 89 nM.

For the compound `O=[N+]([O-])c1ccc2c(c1Oc1ccc(C(F)(F)F)nc1)CCC2OP(=O)(N1CC1)N1CC1` (stereo not drawn) [Example 25], the 50% inhibitory concentration (IC50) is under 10 nM in experiment [1] (Homo sapiens, NCI-H460, 72 h) and 92.9 nM in experiment [2].

Regarding `O=[N+]([O-])c1ccc2c(c1Oc1cccc(-n3ccc(C4CC4)n3)c1)CCC2OP(=O)(N1CC1)N1CC1` (stereo not drawn) [Example 115], the IC50 is 10 to 50 nM in experiment [1] (Homo sapiens, NCI-H460, 72 h) and 4730 nM in experiment [2].

For `CC(C)Oc1cccc(Oc2c([N+](=O)[O-])ccc3c2CC[C@@H]3OP(=O)(N2CC2)N2CC2)c1` [Example 452], the IC50 in experiment [1] is under 10 nM; in experiment [2], 2240 nM.

Consider `O=[N+]([O-])c1cc2oc(COP(=O)(N3CC3)N3CC3)cc2cc1Oc1cccc(-c2cccnc2)c1` [Example 537], for which the IC50 in experiment [1] (Homo sapiens, NCI-H460, 72 h) was under 10 nM; in experiment [2], 3710 nM.

In the case of `O=[N+]([O-])c1ccc2c(c1Oc1ccc(F)c(-n3ncnn3)c1)CC[C@@H]2OP(=O)(N1CC1)N1CC1` [Example 441], the half-maximal inhibitory concentration (IC50) in experiment [1] (Homo sapiens, NCI-H460, 72 h) was under 10 nM; in experiment [2], 158 nM.

`O=[N+]([O-])c1ccc2c(c1Oc1cccc(OCC3CC3)c1)CCC2OP(=O)(N1CC1)N1CC1` (stereo not drawn) [Example 480]: the IC50 in experiment [1] is under 10 nM; in experiment [2], 1760 nM.

For the compound `O=[N+]([O-])c1ccc2c(c1Oc1ccc(-c3ccccn3)cc1)CC[C@H]2OP(=O)(N1CC1)N1CC1` (single isomer, unassigned) [Example 41], the IC50 was under 10 nM in experiment [1] (Homo sapiens, NCI-H460, 72 h) and 1090 nM in experiment [2].

Turning to `Cc1ccnn1-c1cc(Oc2c([N+](=O)[O-])ccc3c2CC[C@@H]3OP(=O)(N2CC2)N2CC2)ccc1F` [Example 433], the IC50 was under 10 nM in experiment [1] (Homo sapiens, NCI-H460, 72 h) and 2590 nM in experiment [2].

As for `O=[N+]([O-])c1ccc2c(c1Oc1cccc(OC3COC3)c1)CC[C@H]2OP(=O)(N1CC1)N1CC1` [Example 468], the concentration for half-maximal inhibition (IC50) was under 10 nM in experiment [1] and 660 nM in experiment [2].

As for `O=C(NC1CCC1)c1ccc(Oc2c([N+](=O)[O-])ccc3c2CCC3OP(=O)(N2CC2)N2CC2)cc1` (stereo not drawn) [Example 52], the concentration for half-maximal inhibition (IC50) in experiment [1] (Homo sapiens, NCI-H460, 72 h) was 10 to 50 nM; in experiment [2] it was 700 nM.

Turning to `CC1CN1P(=O)(OCc1ccc([N+](=O)[O-])c(Oc2cccc(C(=O)N(C)C)c2)c1)N1CC1C` (stereo not drawn) [Example 206, 3-(3-(dimethylcarbamoyl)phenoxy)-4-nitrobenzyl bis(2-methylaziridin-1-yl)phosphinate], the half-inhibitory concentration (IC50) in experiment [1] (Homo sapiens, NCI-H460, 72 h) is under 10 nM; in experiment [2], 82.3 nM.

As to `O=C1c2ccc(Oc3c([N+](=O)[O-])ccc4c3CCC4OP(=O)(N3CC3)N3CC3)cc2CN1C1CC1` (stereo not drawn) [Example 57], the values for the IC50 in experiment [1] and in experiment [2] were under 10 nM and 219 nM, respectively.

Turning to `O=[N+]([O-])c1ccc2c(c1Oc1ccc(-c3ccc(F)cc3)c(F)c1)CCC2OP(=O)(N1CC1)N1CC1` (single isomer, unassigned) [Example 27], the IC50 in experiment [1] (Homo sapiens, NCI-H460, 72 h) is under 10 nM; in experiment [2], 1170 nM.

With `O=[N+]([O-])c1ccc2c(c1Oc1ccc(-c3ccc(F)cc3)cc1)CCC2OP(=O)(N1CC1)N1CC1` (stereo not drawn) [Example 21], the IC50 in experiment [1] (Homo sapiens, NCI-H460, 72 h) was under 10 nM; in experiment [2], 1420 nM.

Turning to `O=C1c2cc(Oc3c([N+](=O)[O-])ccc4c3CC[C@@H]4OP(=O)(N3CC3)N3CC3)ccc2CN1C1CC1` (single isomer, unassigned) [Example 39], the IC50 was under 10 nM in experiment [1] (Homo sapiens, NCI-H460, 72 h) and 561 nM in experiment [2].

As to `Cn1cc(Oc2c([N+](=O)[O-])ccc3c2CCC3OP(=O)(N2CC2)N2CC2)ccc1=O` (stereo not drawn) [Example 509], the 50% inhibitory concentration (IC50) in experiment [1] was under 10 nM; in experiment [2], 844 nM.

Turning to `O=[N+]([O-])c1ccc2c(c1Oc1ccc(-c3cccnc3)cc1)CCC2OP(=O)(N1CC1)N1CC1` (single isomer, unassigned) [Example 54], the IC50 in experiment [1] was under 10 nM; in experiment [2] it was 516 nM.

Turning to `O=[N+]([O-])c1ccc2c(c1Oc1cncc(C3CC3)c1)CCC2OP(=O)(N1CC1)N1CC1` (racemic) [Example 315], the IC50 in experiment [1] was under 10 nM; in experiment [2], 679 nM.

Turning to `Cc1cnc(-c2cccc(Oc3c([N+](=O)[O-])ccc4c3CC[C@@H]4OP(=O)(N3CC3)N3CC3)c2)s1` [Example 342], the IC50 was 10 to 50 nM in experiment [1] (Homo sapiens, NCI-H460, 72 h) and 4270 nM in experiment [2].

For the compound `O=C(NC1CCC1)c1ccc(Oc2c([N+](=O)[O-])ccc3c2CC[C@H]3OP(=O)(N2CC2)N2CC2)cc1` [Example 262], the concentration for half-maximal inhibition (IC50) was under 10 nM in experiment [1] and 945 nM in experiment [2].
